Measurements from the NIST ThermoML archive (doi:10.1016/j.jct.2016.05.017).
“And” between values parts separate entries of the source, which are not always exact repeats. Identical values can stand only once.

Tests used:
[1] = for vapor or sublimation pressure: Transpiration method; for Triple point temperature: DSC
[2] = Molar enthalpy of transition or fusion; conditions: Crystal; DSC

O=C(O)C12CC3CC(CC(C3)C1)C2 [tricyclo[3.3.1.1(3,7)]decane-1-carboxylic acid]
[1], Crystal
Conditions | vapor or sublimation pressure [kPa]
345.2 K | 0.0009
348.2 K | 0.00122
353.2 K | 0.00193
356.7 K | 0.00266
360.2 K | 0.00382
362.2 K | 0.00453
365.2 K | 0.00575
367.7 K | 0.00692
370.2 K | 0.00896
370.3 K | 0.00895
373.2 K | 0.01102
375.2 K | 0.01263
377.3 K | 0.01524
377.7 K | 0.01587
380.2 K | 0.01902
382.2 K | 0.02303
385.3 K | 0.02961

Conditions | Triple point temperature [K]
[1], Crystal | 449.1

Conditions | Molar enthalpy of transition or fusion [kcal/mol]
[2] | 4.21

O=C1C2CC3CC(C2)CC1C3 [2-adamantanone]
[1], Crystal
Conditions | vapor or sublimation pressure [kPa]
293.5 K | 0.00109
296.4 K | 0.00142
297.4 K | 0.00156
298.5 K | 0.00172
300.4 K | 0.00199
303.4 K | 0.00258
306.4 K | 0.00341
308.4 K | 0.00417
313.4 K | 0.00608
318.4 K | 0.00903
323.4 K | 0.01275
328.4 K | 0.01873
333.4 K | 0.02597
338.5 K | 0.03782
343.3 K | 0.05432
348.4 K | 0.07513
353.3 K | 0.09857
358.3 K | 0.1302
363.4 K | 0.1815
368.4 K | 0.2462
373.4 K | 0.3099

CC(=O)C12CC3CC(CC(C3)C1)C2 [1-adamantyl methyl ketone]
[1]
Conditions | vapor or sublimation pressure
291.6 K, Crystal | 0.00076 kPa
293.7 K, Crystal | 0.00099 kPa
296.5 K, Crystal | 0.00136 kPa
298.4 K, Crystal | 0.00174 kPa
303.3 K, Crystal | 0.00299 kPa
308.2 K, Crystal | 0.00505 kPa
308.4 K, Crystal | 0.00506 kPa
313.2 K, Crystal | 0.0085 kPa
316.2 K, Crystal | 0.01174 kPa
318.2 K, Crystal | 0.01406 kPa
318.7 K, Crystal | 0.01511 kPa
320.3 K, Crystal | 0.01713 kPa
323.3 K, Crystal | 0.02368 kPa
331.3 K, Liquid | 0.0399 kPa and 0.0404 kPa
333.2 K, Liquid | 0.04637 kPa and 0.0468 kPa
335.2 K, Liquid | 0.0516 kPa
338.2 K, Liquid | 0.0633 kPa
341.2 K, Liquid | 0.0767 kPa
343.1 K, Liquid | 0.08701 kPa
346.2 K, Liquid | 0.1025 kPa
348.1 K, Liquid | 0.1221 kPa
348.3 K, Liquid | 0.1231 kPa
351.7 K, Liquid | 0.1433 kPa
352.1 K, Liquid | 0.1514 kPa
353.1 K, Liquid | 0.1567 kPa
355.5 K, Liquid | 0.1853 kPa
356 K, Liquid | 0.1912 kPa
358.1 K, Liquid | 0.2111 kPa
358.2 K, Liquid | 0.2186 kPa
360.4 K, Liquid | 0.2451 kPa
363.1 K, Liquid | 0.2835 kPa

Conditions | Triple point temperature [K]
[1], Crystal | 325.2

Conditions | Molar enthalpy of transition or fusion [kcal/mol]
[2] | 4.66

O=C(O)C1C2CC3CC(C2)CC1C3 (stereo not given) [adamantane-2-carboxylic acid]
[1], Crystal
Conditions | vapor or sublimation pressure
344.3 K | 0.00066 kPa
347.3 K | 0.00087 kPa
350.3 K | 0.00113 kPa
353.4 K | 0.00157 kPa
355.4 K | 0.0018 kPa
356.4 K | 0.00212 kPa
358.4 K | 0.00246 kPa
360.4 K | 0.00307 kPa
362.4 K | 0.00345 kPa
364.4 K | 0.00436 kPa
365.8 K | 0.0048 kPa
368.3 K | 0.00577 kPa
368.4 K | 0.00595 kPa
369.4 K | 0.00628 kPa
370.4 K | 0.00725 kPa
371.4 K | 0.00757 kPa
373.4 K | 0.00923 kPa
374.4 K | 0.00992 kPa
376.4 K | 0.01193 kPa
377.4 K | 0.01257 kPa and 0.01301 kPa
378.4 K | 0.01382 kPa
380.3 K | 0.01584 kPa
381.3 K | 0.01701 kPa
383.4 K | 0.02003 kPa
386.4 K | 0.02497 kPa

Conditions | Triple point temperature [K]
[1], Crystal | 416.3

Conditions | Molar enthalpy of transition or fusion [kcal/mol]
[2] | 2.34
